The values below come from patent publication US11319316B2, “Compounds that induce degradation of anti-apoptotic Bcl-2 family proteins and the uses thereof” (BioVentures, LLC, priority 2016, dated 2022).

Common to all, as to type: cell-based
One test deals with Normal WI38 (NSC). Nature of the test: Viability of normal WI38 cells (NSC), 72 h, PI staining and flow cytometry. On the procedure: (§1) Normal WI38 (NSC) and IR-induced senescent WI38 cells (IR-SC) were incubated with vehicle or increasing concentrations of compounds of Formula (I) or Formula (II) for 72 hours. The cells were digested with 0.25% trypsin and 1 mM EDTA, and harvested in PBS containing 2% FBS. After incubation with propidium iodide (PI, 100 ng/ml) in PBS at room temperature for 1 minute, cells were centrifuged at 1,200 rpm for 6 minutes to remove PI and then resuspended in PBS containing 2% FBS for analysis using a flow cytometer. Viable cells (PI-cells) were analyzed by flow cytometry at a constant flow rate to count the number of cells and calculated as a percentage of control cells treated with vehicle. Table 1 depicts the EC50 values of the compounds of Formula (I) and compounds of Formula (II) against normal WI38 and IR-induced senescent WI38.

Test [1] relates to IR-induced senescent WI38 cells (IR-SC). Nature of the test: Viability of IR-induced senescent WI38 cells (IR-SC), 72 h, PI staining and flow cytometry. The settings on record: for EC50: IR-induced senescent WI38 cells, 72 hours, viable (PI-) cells as percentage of vehicle control; for Ratio NSC/SC: ratio of WI38 EC50 in NSC to EC50 in IR-SC. As for the experimental part: as §1

In another test the test system is RS4; 11 cancer cells. The test is described as follows: Cancer cell viability by MTS, 72 h, RS4;11. The settings on record: RS4;11 cells. As for the experimental part:
(§2) RS4; 11 and NCI-H146 cancer cells were incubated with vehicle or increasing concentrations of compounds of Formula (I) and Formula (II). At 72 hours post-treatment cell viability was measured by MTS and EC50 was calculated as a percentage of control cells treated with vehicle. Table 1 depicts the EC50 values of compounds of Formula (I) and Formula (II) against RS4; 11 and NCI-H146.

Test [2] addresses T1, Bcl-xL (Homo sapiens, UniProt Q07817).
T1 construct: endogenous in cells; host or cells: WI38 cells (normal NC-WI38 and ionizing-radiation-induced senescent IR-SC WI38)
Nature of the test: Protein degradation assay (Western blot) in IR-SC WI38 cells. The note with it: for Bcl-xL depletion in IR-SC WI38 cells: 1 μM (FIG. 4A). On the procedure: IR-SC WI38 cells were incubated with vehicle or increasing concentrations of XZ-14439 for 18 hours at increasing […] (FIG. 3A) and at a fixed concentration of XZ-14439 for increasing times (FIG. […]). The cells were digested with 0.25% trypsin and 1 mM EDTA, and harvested in RIPA lysis buffer with 1% Phosphatase Inhibitor Cocktail 3 and 1% Protease Inhibitor Cocktail. An equal amount of protein (15-30 μg/lane) from each cell extract was resolved on a 12% SDS-PAGE gel. Proteins were blotted onto a NOVEX PVDF membrane by electrophoresis. The membranes were blocked with TBS-T blocking buffer (5% nonfat milk in 25 mM Tris-HCL, pH 7.4; 3 mM KCl; […] NaCl; and 0.05% Tween) and probed with primary antibodies (at a predetermined optimal concentration) overnight at 4° C. or for 1 hour at room temperature. After extensive washing with TBS-T, the membranes were incubated with an appropriate peroxidase-conjugated secondary antibody for 1 hour at room temperature. After three washes with TBS-T, the proteins of interest were detected with ECL Western Blotting Detection Reagents and recorded with autoradiography (Pierce Biotech, Rockford, Ill., USA). The primary antibody Bcl-x (#2762), Bcl-2 antibody (#2872S) and β-actin (13E5, #4970) were purchased from Cell Signaling.
(§3) IR-SC WI38 (FIG. 4A) and RS4; 11 (FIG. 4B) cells were incubated with vehicle or increasing concentrations of compounds of Formula (I) or Formula (II) for 6 or 16 hours, at 1 μM (FIG. 4A) and 100 nm (FIG. 4B), respectively. The cells were harvested in RIPA lysis buffer with 1% Phosphatase Inhibitor Cocktail 3 and 1% Protease Inhibitor Cocktail. An equal amount of protein (15-30 μg/lane) from each cell extract was resolved on a 12% SDS-PAGE gel. Proteins were blotted onto a NOVEX PVDF membrane by electrophoresis. The membranes were blocked with TBS-T blocking buffer (5% nonfat milk in 25 mM Tris-HCL, pH 7.4; 3 mM KCl; 140 mM NaCl; and 0.05% Tween) and probed with primary antibodies (at a predetermined optimal concentration) overnight at 4° C. or for 1 hour at room temperature. After extensive washing with TBS-T, the membranes were incubated with an appropriate peroxidase-conjugated secondary antibody (Jackson ImmunoResearch Europe, Suffolk, UK) for 1 hour at room temperature. After three washes with TBS-T, the proteins of interest were detected with ECL Western Blotting Detection Reagents and recorded with autoradiography. The primary antibody Bcl-xl (#2762), Bcl-2 antibody (#2872S), Bcl-w (#2724S), Mcl-1 (#5453s) and β-actin (13E5, #4970) were purchased from Cell Signaling.

In test [3] the target is T1, Bcl-xL. Nature of the test: Protein degradation assay (Western blot) in RS4;11 cells. The arrangement: dose or concentration left out as unconfirmed. As for the experimental part:
as §3, with “IR-SC WI38 (FIG. 4A) and RS4; 11 (FIG. 4B) cells were incubated with vehicle or increasing concentrations of compounds of Formula (I) or Formula (II) for 6 or 16 hours, at 1 μM (FIG. 4A) and 100 nm (FIG. 4B), respectively.” left out

For a further test, the system named is NCI-H146 cancer cells. The test is described as follows: Cancer cell viability by MTS, 72 h, NCI-H146. The settings on record: Homo sapiens. On the procedure: as §2
Where [4] appears, read: Homo sapiens, WI-38, viable (PI-) cells as percentage of vehicle control.

SMILES strings stand for the structures.

T1 sequence (Q07817 whole entry): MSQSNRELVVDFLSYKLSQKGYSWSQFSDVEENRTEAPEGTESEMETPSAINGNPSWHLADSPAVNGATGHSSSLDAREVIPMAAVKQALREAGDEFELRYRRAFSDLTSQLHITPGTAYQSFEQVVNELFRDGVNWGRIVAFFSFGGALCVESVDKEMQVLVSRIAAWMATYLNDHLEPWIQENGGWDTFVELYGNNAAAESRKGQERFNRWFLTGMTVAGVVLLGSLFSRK

Consider `CC1(C)CCC(c2ccc(Cl)cc2)=C(CN2CCN(c3ccc(C(=O)NS(=O)(=O)c4ccc(N[C@H](CCN5CCN(CCOCCOCCOCCNc6cccc7c6C(=O)N(C6CCC(=O)NC6=O)C7=O)CC5)CSc5ccccc5)c(S(=O)(=O)C(F)(F)F)c4)cc3)CC2)C1` (stereo partly drawn) [XZ-15418, 4-(4-((4′-chloro-4,4-dimethyl-3,4,5,6-tetrahydro-[1,1′-biphenyl]-2-yl)methy)piperazin-1-yl)-N-((4-(((2R)-4-(4-(2-(2-(2-(2-((2-(2,6-dioxopiperidin-3-yl)-1,3-dioxoisoindolin-4-yl)amino)ethoxy)ethoxy)ethoxy)ethyl)piperazin-1-yl)-1-(phenylthio)butan-2-yl)amino)-3-((trifluoromethyl)sulfonyl)phenyl)sulfonyl)benzamide], for which the EC50 in the test on Normal WI38 (NSC) (viable (PI-) cells as percentage of vehicle control) is greater than 10000 nM; in test [1], 172 nM; in the test with RS4; 11 cancer cells, 12.3 nM. Besides, the “Ratio NSC/SC” value in test [1] is given as greater than 58.06. For the same molecule, on Bcl-xL [2], the “Bcl-xL depletion in IR-SC WI38 cells” value is listed as “deplete Bcl-xL”. At Bcl-xL [3], the “Bcl-xL depletion in RS4; 11 cells” value is recorded as “deplete Bcl-xL”.

As to `CC1(C)CCC(c2ccc(Cl)cc2)=C(CN2CCN(c3ccc(C(=O)NS(=O)(=O)c4ccc(N[C@H](CCN5CCN(CCOCCOCCNc6cccc7c6C(=O)N(C6CCC(=O)NC6=O)C7=O)CC5)CSc5ccccc5)c(S(=O)(=O)C(F)(F)F)c4)cc3)CC2)C1` (stereo partly drawn) [XZ-15405, 4-(4-((4′-chloro-4,4-dimethyl-3,4,5,6-tetrahydro-[1,1′-biphenyl]-2-yl)methyl)piperazin-1-yl)-N-((4-(((2R)-4-(4-(2-(2-(2-((2-(2,6-dioxopiperidin-3-yl)-1,3-dioxoisoindolin-4-yl)amino)ethoxy)ethoxy)ethyl)piperazin-1-yl)-1-(phenylthio)butan-2-yl)amino)-3-((trifluoromethyl)sulfonyl)phenyl)sulfonyl)benzamide], the concentration giving a half-maximal response (EC50) with Normal WI38 (NSC) (setting [4]) was greater than 10000 nM; in test [1] (Homo sapiens, WI-38) it was 152 nM; in the test on RS4; 11 cancer cells (Homo sapiens), 24.8 nM. Also, the “Ratio NSC/SC” value in test [1] is reported as greater than 65.97. Also, the “Bcl-xL depletion in IR-SC WI38 cells” value on Bcl-xL [2] is on record as “deplete Bcl-xL”. Also, the “Bcl-xL depletion in RS4; 11 cells” value on Bcl-xL [3] is given as “deplete Bcl-xL”.

In the case of `CC1(C)CCC(c2ccc(Cl)cc2)=C(CN2CCN(c3ccc(C(=O)NS(=O)(=O)c4ccc(N[C@H](CCN5CCN(C(=O)Cn6cc(COCCOCCNc7cccc8c7C(=O)N(C7CCC(=O)NC7=O)C8=O)nn6)CC5)CSc5ccccc5)c(S(=O)(=O)C(F)(F)F)c4)cc3)CC2)C1` (stereo partly drawn) [XZ-15421], the EC50 in the test with Normal WI38 (NSC) (setting [4]) is greater than 10000 nM; in test [1] (Homo sapiens, WI-38), less than 156 nM; with RS4; 11 cancer cells (Homo sapiens), 72.9 nM. Besides, the “Ratio NSC/SC” value in test [1] is greater than 64.02. The “Bcl-xL depletion in IR-SC WI38 cells” value at Bcl-xL [2] is given as “deplete Bcl-xL”. Moreover, the “Bcl-xL depletion in RS4; 11 cells” value on Bcl-xL [3] is listed as “deplete Bcl-xL”.

As for `CC1(C)CCC(c2ccc(Cl)cc2)=C(CN2CCN(c3ccc(C(=O)NS(=O)(=O)c4ccc(N[C@H](CCN5CCN(C(=O)CCCn6cc(COCCOCCOCCNc7cccc8c7C(=O)N(C7CCC(=O)NC7=O)C8=O)nn6)CC5)CSc5ccccc5)c(S(=O)(=O)C(F)(F)F)c4)cc3)CC2)C1` (stereo partly drawn) [XZ-14439, 4-(4-((4′-chloro-4,4-dimethyl-3,4,5,6-tetrahydro-[1,1′-biphenyl]-2-yl)methyl)piperazin-1-yl)-N-((4-(((2R)-4-(4-(4-(4-((2-(2-(2-((2-(2,6-dioxopiperidin-1,3-yl)-1,3-dioxoisoindolin-4-yl)amino)ethoxy)ethoxy)ethoxy)methyl)-1H-1,2,3-triazol-1-yl)butanoyl)piperazin-1-yl)-1-(phenylthio)butan-2-yl)amino)-3-((trifluoromethyl)sulfonyl)phenyl)sulfonyl)benzamide], the concentration giving a half-maximal response (EC50) in the test with Normal WI38 (NSC) (setting [4]) was greater than 20000 nM; in test [1] (Homo sapiens, WI-38) it was 870 nM; in the test with RS4; 11 cancer cells (Homo sapiens), 84.4 nM; in the test on NCI-H146 cancer cells, 69.5 nM. Also, in test [1], the “Ratio NSC/SC” value is recorded as greater than 20.88. The “Bcl-xL depletion in IR-SC WI38 cells, dose and time dependence” value on Bcl-xL [2] (increasing concentrations for 18 hours (FIG. 3A), fixed concentration for increasing times (FIG. 3B)) was “depletes Bcl-xL in IR-SC WI38 cells in both a dose dependent (FIG. 3A) and time dependent (FIG. 3B) manner”.
